Experimental data as given in publication PMC9501983, “Transport and Permeation Properties of Dapivirine: Understanding Potential Drug-Drug Interactions” (Pharmaceutics, 2022).

Legend:
BCRP = biological target: T1, BCRP (Homo sapiens, UniProt Q9UNQ0); experiment: Bi-directional transport across MDCKII BCRP and WT/EV cell monolayers
T1 sequence (Q9UNQ0 1-655): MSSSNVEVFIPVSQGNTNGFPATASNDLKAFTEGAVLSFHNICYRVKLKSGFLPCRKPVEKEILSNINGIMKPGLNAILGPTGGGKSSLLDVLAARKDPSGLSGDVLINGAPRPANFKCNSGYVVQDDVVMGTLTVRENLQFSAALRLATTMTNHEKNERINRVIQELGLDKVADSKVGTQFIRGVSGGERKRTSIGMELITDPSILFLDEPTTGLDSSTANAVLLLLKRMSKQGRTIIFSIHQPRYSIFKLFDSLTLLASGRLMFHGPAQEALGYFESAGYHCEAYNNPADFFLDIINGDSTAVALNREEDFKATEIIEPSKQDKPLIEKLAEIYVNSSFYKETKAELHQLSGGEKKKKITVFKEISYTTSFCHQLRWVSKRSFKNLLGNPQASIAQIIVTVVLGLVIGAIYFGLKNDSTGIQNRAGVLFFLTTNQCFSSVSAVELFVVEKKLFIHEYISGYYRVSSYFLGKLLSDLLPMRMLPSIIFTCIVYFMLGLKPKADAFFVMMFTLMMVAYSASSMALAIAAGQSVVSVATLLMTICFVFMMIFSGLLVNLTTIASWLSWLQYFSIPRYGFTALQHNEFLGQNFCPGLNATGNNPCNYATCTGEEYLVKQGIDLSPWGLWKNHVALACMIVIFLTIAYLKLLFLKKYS

CYP1A1 = test system: CYP1A1; design: method as in PMID 34959473; settings: cited from earlier work
MRP4 = test system: MRP4; design: method as in PMID 26102284; settings: DPV at 10 μM; cited from earlier work
[1] = DPV tissue permeability across excised human ectocervical tissue (in-line cell); format: in vitro ADME; settings: female, human; 182 µM DPV alone in vaginal fluid simulant pH 4.2, 360 min; read-out: Papp across human cervical tissue
Text: Freshly excised human ectocervical tissue samples from 6 pre-menopausal women were obtained through the Pitt Biospecimen Core at the University of Pittsburgh under an IRB-approved protocol (IRB# PRO09110431). Tissue samples were immersed in ice-cold Dulbecco’s modified Eagle medium during transfer from the surgery site to the laboratory. Tissue samples were then processed as previously reported, where excess stromal tissue was removed using a scalpel, and the epithelium was isolated using a Stadie-Riggs tissue slicer. The isolated epithelium sections were then mounted onto the in-line cell apparatus (PermeGear, Cranford, NJ, USA), a flow-through type Franz cell, with the epithelial side facing the apical compartment. A small piece of tissue sample was fixed in 10% formalin as the pre-treatment control for histology evaluation.
Vaginal fluid simulant was used to prepare drug solutions. Vaginal fluid simulant was prepared using a reported formulation (3.51 g L^−1 sodium chloride, 1.40 g L^−1 potassium hydroxide, 0.22 g L^−1 calcium hydroxide, 0.018 g L^−1 bovine serum albumin, 2.00 g L^−1 lactic acid, 1.00 g L^−1 acetic acid, 0.16 g L^−1 glycerin, 0.4 g L^−1 urea, and 5.0 g L^−1 glucose) and adjusted to pH 4.2 with 1N hydrochloric acid. To evaluate the impact of MIC on DPV tissue permeability, 450 μL of a mixture containing 182 µM (60 μg g^−1) DPV and 63 mM (30 mg g^−1) MIC was added to the apical compartment and compared to 182 µM (60 μg g^−1) DPV alone. […] One half of the tissue sample was fixed in 10% formalin for subsequent histological evaluation, while the other half was used for drug quantification. To quantify drug tissue levels, each tissue sample was digested overnight in 2 mL Solvable held at 50 °C. […] Samples were then cooled to room temperature and 1.5 mL of each sample was used for quantification. To quantify ^3H-DPV and ^14C-mannitol, each vial of collected sample was mixed with 2 mL scintillation cocktail and analyzed on an LS6500 liquid scintillation counter. Papp was calculated using Equation (2) as described above.

With `Cc1cc(C)c(Nc2ccnc(Nc3ccc(C#N)cc3)n2)c(C)c1` [DPV, dapivirine] as the molecule, how does the “DPV ER in MDCKII BCRP cells with Ko143, reduced to % of ER without” value (BCRP; 0.5 μM DPV, 1 μM Ko143) read?
Its value is 85%.

What about the “Impact on Papp of nitrofurantoin across MDCKII BCRP monolayers (either direction)” value (BCRP; 5 μM DPV, 1 μM nitrofurantoin) of the same molecule?
The value was “no significant impact”.

And the “Substrate status for BCRP” value (BCRP; cellular system)?
Its value is “not a substrate”.

What about the efflux ratio at 90 min, 0.5 μM (BCRP; dog, pH 7.4) of the same molecule?
The efflux ratio at 90 min, 0.5 μM was 1.33.

What about the “Substrate of CYP1A1” value (CYP1A1) of the same molecule?
The value was “substrate”.

What about the “Effect on MRP4 expression level” value (MRP4) of the same molecule?
Its value is “downregulating”.

And the Papp at 360 min, 182 µM [1]?
Its Papp at 360 min, 182 µM is 8.8 ± 5.3 nm/s.
